Where two headings read alike, the source gives them in different places.
Tests used:
[1] = tested on: SMN protein in spinal muscular atrophy (SMA) patient fibroblasts (GM03813, Coriell); assay: SMN protein assay, Mesoscale Discovery (MSD); format: cell-based, human; conditions: read-out: SMN2 protein EC50
Description: Example A12: SMN Protein Assay
Compounds are tested on spinal muscular atrophy (SMA) patient fibroblasts (GM03813, Coriell) at doses ranging from 2.5 μM to 0.6 nM. 7000 cells/well are seeded in 96-well plates. Compounds are incubated for 48 hours and the cells were lysed with 100 μL of lysis buffer. 20 μL of lysate is used for SMN protein measurement by Mesoscale Discovery (MSD) assay developed by PharmOptima (Michigan). A standard curve prepared with SMN protein ranging from 1 μg/ml to 19.5 pg/ml is used in each MSD plate to calculate the absolute SMN protein amount in each sample.

[2] = tested on: SMN FL and SMN Δ7 in spinal muscular atrophy (SMA) patient fibroblasts (GM03813, Coriell); assay: Quantitative splicing assay (SMN), qPCR; format: cell-based, human; conditions: read-out: SMN2 Splicing FL EC50
Description: Spinal muscular atrophy (SMA) patient fibroblasts (GM03813, Coriell) are plated in 96-well plates at 50,000 cells/well. […] Treated cells are lysed and cDNA synthesized using the Fast Advanced Cells-to-Ct kit (Thermofisher A35378) according to the manufacturer's instructions. 2 μL of each cDNA are used in qPCR reactions. […] Reactions are run in a Quant Studio 6 qPCR instrument with default settings.

[3] = tested on: MDR1-MDCK cell monolayers; assay: Blood-brain-barrier (BBB) penetration potential via MDCK-MDR1 permeability assay
[4] = tested on: mHTT protein in GM04724 (CAG 70/20) Huntington's disease patient lymphoblast cells; assay: mHTT protein assay, 2B7-MW1 assay via Mesoscale Discovery (MSD); format: cell-based, human
Description: Example A10: mHTT Protein Assay
Compounds are tested on GM04724 (CAG 70/20) Huntington's disease patient lymphoblast cells at doses ranging from 10 μM to 0.6 nM. 4,500 cells/well are seeded in 384 well plates. One plate replica is carried out for parallel viability testing by CellTiter Glo (CTG). Compounds are incubated for 48 hours. mHTT protein levels are assessed by the 2B7-MW1 assay via Mesoscale Discovery (MSD) as previously reported (Macdonald et al., 2014). The antibody pair is comprised of previously characterized monoclonals (2B7 and MW1) interrogating two regions for HTT conformation and biological properties: the N, 17 domain and the polyQ domain (Baldo et al., 2012; Ko et., 2001). 2B7-MW1 is […] specific levels of HTT at the time of treatment. 2B7-MW1 is dependent on polyQ expansion (e.g., the higher the expansion the higher the signal) and on mHTT size (e.g., a similar polyQ will give higher signal with smaller HTT size). The viability readout is carried out by CTG according to the manufacturer's instructions.

[5] = tested on: MDR1; assay: Blood-brain-barrier (BBB) penetration potential via MDCK-MDR1 permeability assay; conditions: dog, MDCK-MDR1, pH 7.4, MDCK-MDR1: Efflux
[6] = tested on: MDR1 (P-gp); assay: as above; conditions: dog; for Papp A→B at 120 min, 5 μM: MDCK-MDR1, pH 7.4, MDCK-MDR1: Papp A-B; for Papp B→A at 120 min, 5 μM: MDCK-MDR1, pH 7.4, MDCK-MDR1: Papp B-A; for efflux ratio at 120 min, 5 μM: MDCK-MDR1, pH 7.4, MDCK-MDR1: Efflux
[7] = tested on: MDR1 (P-gp); assay: in vitro; conditions: dog, MDCK-MDR1, pH 7.4
[8] = tested on: MDR1-MDCK cell monolayers; conditions: dog, MDCK-MDR1, 120 min, 5 μM, pH 7.4
[9] = SMA patient fibroblasts GM03813, 48 hours, MSD
[10] = GM04724 Huntington's disease patient lymphoblasts
[11] = Homo sapiens, Fibroblast, 24 h, SMA patient fibroblasts GM03813, 24 h, qPCR
[12] = SMA patient fibroblasts (GM03813), 48 hours
[13] = GM04724 (CAG 70/20) Huntington's disease patient lymphoblasts
[14] = Homo sapiens, Fibroblast, 24 h, SMA patient fibroblasts (GM03813), 24 h

Structure (SMILES)	EC50 [1, 9] [nM]	MDCK-MDR1: % Recov A-B ([3]; A-B direction) [%]	MDCK-MDR1: % Recov B-A ([3]; B-A direction) [%]	EC50 [4, 10] [nM]	efflux ratio at 120 min, 5 μM ([5]; efflux ratio)	Papp A→B at 120 min, 5 μM ([6]; A-B direction) [×10⁻⁶ cm/s]	Papp B→A at 120 min, 5 μM ([6]; B-A direction) [×10⁻⁶ cm/s]	EC50 [1, 12] [nM]	MDCK-MDR1: % Recov A-B ([3]; A-B) [%]	MDCK-MDR1: % Recov B-A ([3]; B-A) [%]	Papp A→B at 120 min, 5 μM ([6]; A-B) [×10⁻⁶ cm/s]	Papp B→A at 120 min, 5 μM ([6]; B-A) [×10⁻⁶ cm/s]	also measured
CN(c1ccc(-c2cc3cnccc3cc2O)nn1)[C@@H]1C[C@H]2CC[C@H](N2)[C@@H]1F (single isomer, unassigned) [Compound 7B]	0.01 to 15	69	89	51 to 100	–	–	–	–	–	–	–	–	EC50 ([2]; SMA patient fibroblasts GM03813, 24 h, qPCR): 51 to 100 nM; MDCK-MDR1: Papp A-B ([3]; A-B direction): 4.27 10^−6, cm/s; MDCK-MDR1: Papp B-A ([3]; B-A direction): 36.1 10^−6, cm/s; MDCK-MDR1: Efflux ([3]; efflux ratio): 8
CN(c1ccc(-c2ccc(C#N)cc2O)nn1)[C@H]1C[C@@H]2CCC[C@@H](N2)[C@H]1F [Compound 39B, 4-(6-(((1R,2R,3S,5S)-2-fluoro-9-azabicyclo[3.3.1]nonan-3-yl)(methyl)amino)pyridazin-3-yl)-3-hydroxybenzonitrile]	16 to 50	96	86	101 to 500	9	4.57	40.6	–	–	–	–	–	–
CN(c1ccc(-c2cc3ncccc3cc2O)nn1)[C@@H]1C[C@H]2CC(F)(F)[C@@H](C1)N2 [Compound 46A, 7-(6-(((1S,3R,5R)-6,6-difluoro-8-azabicyclo[3.2.1]octan-3-yl)(methyl)amino)pyridazin-3-yl)quinolin-6-ol]	16 to 50	68	89	16 to 50	–	31.7	29.2	–	–	–	–	–	EC50 [2, 11]: 501 to 10000 nM; efflux ratio at 120 min, 5 μM ([6]; efflux ratio): 1
CN(c1ccc(-c2cc3ncccc3cc2O)nn1)[C@H]1C[C@@H]2CC(F)(F)[C@H](C1)N2 [Compound 46B, 7-(6-(((1R,3S,5S)-6,6-difluoro-8-azabicyclo[3.2.1]octan-3-yl)(methyl)amino)pyridazin-3-yl)quinolin-6-ol]	16 to 50	68	86	101 to 500	–	32	31.6	–	–	–	–	–	EC50 [2, 11]: 101 to 500 nM; efflux ratio at 120 min, 5 μM ([6]; efflux ratio): 1
Cc1cnc(-c2ccc(-c3ccc(N(C)[C@@H]4C[C@H]5CC[C@H](N5)[C@@H]4F)nn3)c(O)c2)o1 [Compound 48A, 2-(6-(((1S,2S,3R,5R)-2-fluoro-8-azabicyclo[3.2.1]octan-3-yl)(methyl)amino)pyridazin-3-yl)-5-(5-methyloxazol-2-yl)phenol]	0.01 to 15	58	76	51 to 100	8	3.71	29	–	–	–	–	–	–
CN(c1ccc(-c2cc3cncnc3cc2O)nn1)[C@@H]1C[C@H]2CC[C@H](N2)[C@@H]1F [Compound 75A, 6-(6-(((1S,2S,3R,5R)-2-fluoro-8-azabicyclo[3.2.1]octan-3-yl)(methyl)amino)pyridazin-3-yl)quinazolin-7-ol]	51 to 100	101	100	101 to 500	22	2.31	50.3	–	–	–	–	–	–
CN(C)C(=O)c1cc2cc(O)c(-c3ccc(N(C4CC4)[C@H]4C[C@@H]5CC[C@@H](N5)[C@H]4F)nn3)cc2o1 [Compound 86B, 6-(6-(cyclopropyl((1R,2R,3S,5S)-2-fluoro-8-azabicyclo[3.2.1]octan-3-yl)amino)pyridazin-3-yl)-5-hydroxy-N,N-dimethylbenzofuran-2-carboxamide]	51 to 100	88	92	16 to 50	66	0.81	53.6	–	–	–	–	–	–
CN(c1ccc(-c2cc3cnccc3cc2O)nn1)[C@H]1C[C@@H]2CC[C@H]([C@H]1F)N2C [Compound 93B, 7-(6-(((1R,2R,3S,5S)-2-fluoro-8-methyl-8-azabicyclo[3.2.1]octan-3-yl)(methyl)amino)pyridazin-3-yl)isoquinolin-6-ol]	51 to 100	45	63	101 to 500	4	5.39	22.3	–	–	–	–	–	–
CN(c1ccc(-c2cc3ncn(C)c(=O)c3cc2O)nn1)[C@@H]1C[C@H]2CC[C@@H]([C@@H]1F)N2C [Compound 101A, 7-(6-(((1S,2S,3R,5R)-2-fluoro-8-methyl-8-azabicyclo[3.2.1]octan-3-yl)(methyl)amino)pyridazin-3-yl)-6-hydroxy-3-methylquinazolin-4(3H)-one]	–	–	–	–	–	–	–	51 to 100	101	109	2.81	72.6	efflux ratio at 120 min, 5 μM [5]: 26; EC50 [4, 13]: 101 to 500 nM
Cc1nc2cc(-c3ccc(N(C)[C@@H]4C[C@H]5CC[C@H](N5)[C@@H]4F)nn3)c(O)cc2c(=O)n1CC(F)(F)F [Compound 113A, 7-(6-(((1S,2S,3R,5R)-2-fluoro-8-azabicyclo[3.2.1]octan-3-yl)(methyl)amino)pyridazin-3-yl)-6-hydroxy-2-methyl-3-(2,2,2-trifluoroethyl)quinazolin-4(3H)-one]	–	–	–	–	–	–	–	0.01 to 15	96	99	0.2	66.9	efflux ratio at 120 min, 5 μM [5]: 333; mHTT protein EC50 [4, 13]: E (501 ≤ E ≤ 10.000)
CN(c1ccc(-c2cc3ccncc3cc2O)nn1)[C@H]1C[C@@H]2CC(F)(F)[C@H](C1)N2 [Compound 125B, 6-(6-(((1R,3S,5S)-6,6-difluoro-8-azabicyclo[3.2.1]octan-3-yl)(methyl)amino)pyridazin-3-yl)isoquinolin-7-ol]	–	–	–	–	–	–	–	16 to 50	67	81	15.6	53.2	EC50 [2, 14]: 16 to 50 nM; efflux ratio at 120 min, 5 μM [6]: 3; EC50 [4, 13]: 51 to 100 nM
CN(c1ccc(-c2cc3cnccc3cc2O)nn1)[C@@H]1C[C@H]2CC(F)(F)[C@@H](C1)N2 [Compound 126A, 7-(6-(((1S,3R,5R)-6,6-difluoro-8-azabicyclo[3.2.1]octan-3-yl)(methyl)amino)pyridazin-3-yl)isoquinolin-6-ol]	–	–	–	–	–	–	–	0.01 to 15	80	92	13.7	35.3	EC50 [2, 14]: 16 to 50 nM; efflux ratio at 120 min, 5 μM [6]: 3; EC50 [4, 13]: 51 to 100 nM
CN(c1ccc(-c2cc3cnccc3cc2O)nn1)[C@H]1C[C@@H]2CC(F)(F)[C@H](C1)N2 [Compound 126B, 7-(6-(((1R,3S,5S)-6,6-difluoro-8-azabicyclo[3.2.1]octan-3-yl)(methyl)amino)pyridazin-3-yl)isoquinolin-6-ol]	–	–	–	–	–	–	–	101 to 500	–	–	–	–	Papp A→B at 120 min, 5 μM [7]: 12.6 ×10⁻⁶ cm/s; Papp B→A at 120 min, 5 μM [7]: 39.4 ×10⁻⁶ cm/s; efflux ratio at 120 min, 5 μM [7]: 3; MDCK-MDR1: % Recov A-B [8]: 75%; MDCK-MDR1: % Recov B-A [8]: 88%; mHTT protein EC50 [4, 13]: E (501 ≤ E ≤ 10.000)

From patent US12509460B2 (Skyhawk Therapeutics, Inc., priority 2019, dated 2025)
